# In patent US8022091B2, “Triazole derivative” (Taisho Pharmaceutical Co., Ltd., priority 2006, dated 2011):
# Experiments:
# human Edg-1 (S1P1) = target: T1, human Edg-1 (S1P1) (Homo sapiens, UniProt P21453); assay: S1P1 binding assay: inhibition of [33P]-S1P binding to membrane fraction of HEK-293 cells transferred with the human Edg-1 (S1P1) gene; details: for IC50: [33P]-S1P 0.1 nM, human Edg-1 (S1P1) HEK-293 membrane fraction, 1 h at 30° C., read-out: IC50 (concentration at which binding in the absence of the test compound was inhibited by 50%)
# T1 construct: expressed in transfected cells; host or cells: HEK-293
# Procedure, shortened: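 With 0.1 nM [33P]-S1P and compound (10^−5M single point, or a concentration range for IC50) in 0.1% DMSO, membrane fractions from human Edg-1-expressing HEK-293 cells were treated for one hour at 30° C in 20 mM Tris-HCl pH 7.4 with NaF, deoxypyridoxine and BSA. Bound label was measured after filtration, with untransfected-cell background subtracted.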
# [1] = test compound at 10 μM, inhibition of [33P]-S1P binding to the membrane fraction of HEK-293 cells expressing human Edg-1 (S1P1)
# [2] = test compound 10 μM, inhibition of [33P]-S1P binding, membrane fraction
# T1 sequence (P21453 whole entry): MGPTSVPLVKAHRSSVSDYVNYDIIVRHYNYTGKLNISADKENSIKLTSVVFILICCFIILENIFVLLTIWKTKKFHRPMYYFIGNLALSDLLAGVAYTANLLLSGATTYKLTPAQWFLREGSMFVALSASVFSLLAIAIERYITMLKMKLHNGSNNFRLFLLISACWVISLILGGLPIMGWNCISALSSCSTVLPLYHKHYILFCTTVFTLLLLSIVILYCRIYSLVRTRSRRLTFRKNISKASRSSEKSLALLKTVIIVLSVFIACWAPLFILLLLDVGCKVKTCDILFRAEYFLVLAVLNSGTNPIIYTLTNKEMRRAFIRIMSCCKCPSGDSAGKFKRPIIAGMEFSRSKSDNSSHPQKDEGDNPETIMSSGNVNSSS
structure (smiles),measurement,setting,value
"CCn1c(Oc2cccc(O)c2)nnc1[C@@H](C)NS(=O)(=O)c1ccc(Cl)c(Cl)c1 [Compound 114, 3,4-Dichloro-N-[(R)-1-[4-ethyl-5-(3-hydroxyphenoxy)-4H-[1,2,4]triazol-3-yl]-ethyl]-benzenesulfonamide]",inhibition at 10 µM,human Edg-1 (S1P1); [1],94.5%
same,melting point,,185 to 186 °C
CCn1c(Nc2ccc(F)cc2)nnc1[C@@H](C)NS(=O)(=O)c1ccc(Cl)c(Cl)c1 [Compound 116],inhibition at 10 µM,human Edg-1 (S1P1); [1],83.1%
same,melting point,,192 to 195 °C
CCOc1ccc2c(Oc3nnc([C@@H](C)NS(=O)(=O)c4ccc(Cl)c(Cl)c4)n3CC)csc2c1 [Compound 117],inhibition at 10 µM,human Edg-1 (S1P1); [1],87.1%
same,melting point,,153.5 to 155.5 °C
CCn1c(Oc2cccc(N3CCN(C)CC3)c2)nnc1[C@@H](C)NS(=O)(=O)c1ccc2c(Cl)cccc2c1 [Compound 120],IC50,human Edg-1 (S1P1),0.0017 µM
same,inhibition at 10 µM,human Edg-1 (S1P1); [1],93%
same,melting point,,211.5 to 216.5 °C
CCn1c(Oc2cccc(N3CCN(C)CC3)c2)nnc1[C@@H](C)NS(=O)(=O)c1ccc2ccccc2c1 [Compound 121],IC50,human Edg-1 (S1P1),≤ 0.01 µM
same,inhibition at 10 µM,human Edg-1 (S1P1); [1],103%
same,melting point,,195.5 to 198.5 °C
CCn1c(Oc2ccc(F)cc2)nnc1[C@@H](C)NS(=O)(=O)c1ccc2ccccc2c1 [Compound 122],IC50,human Edg-1 (S1P1),≤ 0.035 µM
same,inhibition at 10 µM,human Edg-1 (S1P1); [1],81.9%
same,melting point,,167 to 170 °C
C[C@@H](NS(=O)(=O)c1ccc(Cl)c(Cl)c1)c1nnc(Oc2cccc(N3CCN(C)CC3)c2)n1C1CC1 [Compound 123],IC50,human Edg-1 (S1P1),≤ 0.035 µM
same,inhibition at 10 µM,human Edg-1 (S1P1); [1],97.1%
same,melting point,,162 to 165 °C
C[C@@H](NS(=O)(=O)c1ccc(Cl)c(Cl)c1)c1nnc(Oc2ccc(F)cc2)n1C1CC1 [Compound 124],inhibition at 10 µM,human Edg-1 (S1P1); [1],97.4%
same,melting point,,178.5 to 180 °C
C[C@@H](NS(=O)(=O)c1ccc(Cl)c(Cl)c1)c1nnc(Oc2ccc3cc[nH]c3c2)n1C1CC1 [Compound 125],IC50,human Edg-1 (S1P1),≤ 0.035 µM
same,inhibition at 10 µM,human Edg-1 (S1P1); [1],94.3%
same,melting point,,253.5 to 254.5 °C
CCn1c(Oc2ccc(F)cc2)nnc1[C@@H](C)NS(=O)(=O)c1ccc(C)c(C)c1 [Compound 126],inhibition at 10 µM,human Edg-1 (S1P1); [1],91.8%
same,melting point,,176.5 to 178 °C
CCn1c(Oc2ccc(F)cc2)nnc1[C@@H](C)NS(=O)(=O)c1ccc(C(F)(F)F)cc1 [Compound 128],inhibition at 10 µM,human Edg-1 (S1P1); [1],90.7%
same,melting point,,182.5 to 183.5 °C
CCn1c(Oc2ccc3cc[nH]c3c2)nnc1[C@@H](C)NS(=O)(=O)c1ccc(C)c(C)c1 [Compound 129],IC50,human Edg-1 (S1P1),0.02 µM
same,inhibition at 10 µM,human Edg-1 (S1P1); [1],96.8%
same,melting point,,96 to 104 °C
CCn1c(Oc2ccc3cc[nH]c3c2)nnc1[C@@H](C)NS(=O)(=O)c1ccc2ccccc2c1 [Compound 130],IC50,human Edg-1 (S1P1),0.0029 µM
same,inhibition at 10 µM,human Edg-1 (S1P1); [1],98.9%
same,melting point,,107 to 114 °C
CCn1c(Oc2ccc3cc[nH]c3c2)nnc1[C@@H](C)NS(=O)(=O)c1cc(C)c(Cl)cc1Cl [Compound 131],IC50,human Edg-1 (S1P1),≤ 0.035 µM
same,inhibition at 10 µM,human Edg-1 (S1P1); [1],97.3%
same,melting point,,102 to 110.5 °C
CCn1c(Oc2ccc3cc[nH]c3c2)nnc1[C@@H](C)NS(=O)(=O)c1ccc(C)c(Cl)c1 [Compound 132],IC50,human Edg-1 (S1P1),≤ 0.01 µM
same,inhibition at 10 µM,human Edg-1 (S1P1); [1],99.5%
same,melting point,,95 to 104 °C
CCn1c(Oc2cccc(N3CCN(C)CC3)c2)nnc1[C@@H](C)NS(=O)(=O)c1ccc(C)c(Cl)c1 [Compound 133],IC50,human Edg-1 (S1P1),≤ 0.01 µM
same,inhibition at 10 µM,human Edg-1 (S1P1); [1],101%
same,melting point,,164 to 169.5 °C
CCn1c(Oc2ccc3cc[nH]c3c2)nnc1[C@@H](C)NS(=O)(=O)c1ccc(Cl)c(Cl)c1Cl [Compound 134],IC50,human Edg-1 (S1P1),≤ 0.035 µM
same,inhibition at 10 µM,human Edg-1 (S1P1); [1],101%
same,melting point,,108.5 to 114.5 °C
CCn1c(Oc2ccc3cc[nH]c3c2)nnc1[C@@H](C)NS(=O)(=O)c1cccc(C(F)(F)F)c1 [Compound 135],inhibition at 10 µM,human Edg-1 (S1P1); [1],101%
same,melting point,,188.5 to 192 °C
CCn1c(Oc2ccc3cc[nH]c3c2)nnc1[C@@H](C)NS(=O)(=O)c1ccc(C(F)(F)F)cc1 [Compound 136],IC50,human Edg-1 (S1P1),0.0081 µM
same,inhibition at 10 µM,human Edg-1 (S1P1); [1],96.5%
same,melting point,,100 to 106 °C
CCn1c(Oc2ccc(F)cc2)nnc1[C@@H](C)NS(=O)(=O)c1ccc2c(Cl)cccc2c1 [Compound 137],IC50,human Edg-1 (S1P1),≤ 0.01 µM
same,inhibition at 10 µM,human Edg-1 (S1P1); [1],102%
same,melting point,,173.5 to 177 °C
CCn1c(Oc2ccc(OC)cc2)nnc1[C@@H](C)NS(=O)(=O)c1ccc2c(Cl)cccc2c1 [Compound 138],IC50,human Edg-1 (S1P1),≤ 0.01 µM
same,inhibition at 10 µM,human Edg-1 (S1P1); [1],99.6%
same,melting point,,167.5 to 169 °C
CCn1c(Oc2ccc(Cl)cc2)nnc1[C@@H](C)NS(=O)(=O)c1ccc2c(Cl)cccc2c1 [Compound 139],IC50,human Edg-1 (S1P1),≤ 0.01 µM
same,inhibition at 10 µM,human Edg-1 (S1P1); [1],101%
same,melting point,,174 to 177 °C
CCn1c(Oc2ccc(OC)cc2)nnc1[C@@H](C)NS(=O)(=O)c1ccc2ccccc2c1 [Compound 140],IC50,human Edg-1 (S1P1),≤ 0.01 µM
same,inhibition at 10 µM,human Edg-1 (S1P1); [1],102%
same,melting point,,110 to 119 °C
CCn1c(Oc2ccc(Cl)cc2)nnc1[C@@H](C)NS(=O)(=O)c1ccc2ccccc2c1 [Compound 141],IC50,human Edg-1 (S1P1),≤ 0.035 µM
same,inhibition at 10 µM,human Edg-1 (S1P1); [1],105%
same,melting point,,169 to 173 °C
CCn1c(Oc2cccc(N3CCN(C)CC3)c2)nnc1[C@@H](C)NS(=O)(=O)c1ccc(C(F)(F)F)cc1 [Compound 142],IC50,human Edg-1 (S1P1),≤ 0.035 µM
same,inhibition at 10 µM,human Edg-1 (S1P1); [1],98.1%
same,melting point,,183 to 184 °C
CCn1c(Oc2cccc(N3CCN(C)CC3)c2)nnc1[C@@H](C)NS(=O)(=O)c1ccc(Cl)c(Cl)c1Cl [Compound 143],IC50,human Edg-1 (S1P1),0.0073 µM
same,inhibition at 10 µM,human Edg-1 (S1P1); [1],99.9%
same,melting point,,144 to 145 °C
CCn1c(Oc2cccc(N3CCN(C)CC3)c2)nnc1[C@@H](C)NS(=O)(=O)c1cc2ccccc2s1 [Compound 144],IC50,human Edg-1 (S1P1),0.0079 µM
same,inhibition at 10 µM,human Edg-1 (S1P1); [1],99.4%
same,melting point,,187 to 188 °C
CCn1c(Oc2cccc(N3CCN(C)CC3)c2)nnc1[C@@H](C)NS(=O)(=O)c1cc(F)cc(Cl)c1C [Compound 145],IC50,human Edg-1 (S1P1),≤ 0.035 µM
same,inhibition at 10 µM,human Edg-1 (S1P1); [1],101%
same,melting point,,150 to 152 °C
CCn1c(Oc2cccc(N3CCN(C)CC3)c2)nnc1[C@@H](C)NS(=O)(=O)/C=C/c1ccccc1 [Compound 146],IC50,human Edg-1 (S1P1),0.012 µM
same,inhibition at 10 µM,human Edg-1 (S1P1); [1],102%
same,melting point,,121 to 122 °C
CCn1c(Oc2cccc(NS(C)(=O)=O)c2)nnc1[C@@H](C)NS(=O)(=O)c1ccc2ccccc2c1 [Compound 147],IC50,human Edg-1 (S1P1),≤ 0.01 µM
same,inhibition at 10 µM,human Edg-1 (S1P1); [1],103%
same,melting point,,141 to 143 °C
CCn1c(Oc2cccc(NS(C)(=O)=O)c2)nnc1[C@@H](C)NS(=O)(=O)c1ccc2c(Cl)cccc2c1 [Compound 148],IC50,human Edg-1 (S1P1),0.0019 µM
same,inhibition at 10 µM,human Edg-1 (S1P1); [1],102%
same,melting point,,154.5 to 155.5 °C
CCC(NS(=O)(=O)c1ccc(Cl)c(Cl)c1)c1nnc(Oc2ccc(C)cc2)n1CC (stereo not shown) [Compound 149],IC50,human Edg-1 (S1P1),0.0078 µM
same,inhibition at 10 µM,human Edg-1 (S1P1); [1],101%
same,melting point,,212 to 214.5 °C
CCn1c(Oc2cccc(N3CCN(C(C)C)CC3)c2)nnc1[C@@H](C)NS(=O)(=O)c1ccc2c(Cl)cccc2c1 [Compound 663],IC50,human Edg-1 (S1P1),≤ 0.01 µM
same,inhibition at 10 µM,human Edg-1 (S1P1); [2],99.5%
same,melting point,,210 to 217 °C
CCn1c(Oc2cccc(N3CCN(C)CC3)c2)nnc1[C@@H](C)NS(=O)(=O)c1ccc2cc(Cl)ccc2c1 [Compound 664],inhibition at 10 µM,human Edg-1 (S1P1); [2],85.4%
same,melting point,,218 to 221.5 °C
